Data on 18 molecules can be found in publication PMC8954640, “Pyranodipyran Derivatives with Tyrosyl DNA Phosphodiesterase 1 Inhibitory Activities and Fluorescent Properties from Aspergillus sp. EGF 15-0-3” (Marine Drugs, 2022).

For data set [1], the target named is TDP1 (Homo sapiens, UniProt Q9NUW8). The experiment in a line: TDP1 inhibition fluorescence assay (quenched fluorescent single-stranded oligonucleotide substrate). Particulars: substrate 5′-FAM-AGGATCTAAAAGACTT-BHQ-3′, repeated at least three times, read-out: TDP1 Inhibition (IC50 ± SD). In kind it is biochemical. From the text: Considering the chiral properties of compounds will affect their activity, all of the obtained compounds, including racemates and enantiomers, were screened for TDP1 inhibition through a fluorescence assay using a quenched fluorescent single-stranded oligonucleotide (5′-FAM-AGGATCTAAAAGACTT-BHQ-3′) as substrate. […] To further investigate the mechanism of the TDP1 inhibitory activity of (+)-6 and (−)-6, a hypothetical binding mode was built using in silico docking from the X-ray crystal structure of humanized TDP1-inhibitor (PDB: 6DJD) to evaluate the mode of interactions of (+)-6 and (−)-6 with TDP1. The inhibitor was docked into the binding site. The tricyclic core of (+)-6 binds to the DNA binding groove in the proximity of the catalytically important residue His263, indicating a potential π–π stacking interaction stabilizing the inhibitor TDP1 complex. Three hypothetical hydrogen bonds were observed between the phenol hydroxy group and the amide group of residue Asn516 (2.9 Å), the 1″-hydroxy group and Ser518 residue (3.0 Å), and the pyran O atom and Ser400 residue (3.5 Å), which might contribute to TDP1 inhibition. Similarly, the polycyclic core scaffold of (−)-6 also lied along the DNA binding groove (Figure 7B), and the H-bonds (3.1 Å) between the phenol hydroxy group and the amide group of residue Asn516 was also observed. In addition, two H-bonds formed between the 2″-hydroxyl group and Ser400 residue (2.5 Å) and the pyran oxygen atom and phenol hydroxy group of Tyr204 residue (3.1 Å). […] The gold score values of (+)-6 and (−)-6 were 55.62 and 44.90, respectively. […] The mechanism of the TDP1 inhibitory activity of (±)-6 remains to be validated by biophysical assays in further research.
Sequence of TDP1 (Q9NUW8 whole entry): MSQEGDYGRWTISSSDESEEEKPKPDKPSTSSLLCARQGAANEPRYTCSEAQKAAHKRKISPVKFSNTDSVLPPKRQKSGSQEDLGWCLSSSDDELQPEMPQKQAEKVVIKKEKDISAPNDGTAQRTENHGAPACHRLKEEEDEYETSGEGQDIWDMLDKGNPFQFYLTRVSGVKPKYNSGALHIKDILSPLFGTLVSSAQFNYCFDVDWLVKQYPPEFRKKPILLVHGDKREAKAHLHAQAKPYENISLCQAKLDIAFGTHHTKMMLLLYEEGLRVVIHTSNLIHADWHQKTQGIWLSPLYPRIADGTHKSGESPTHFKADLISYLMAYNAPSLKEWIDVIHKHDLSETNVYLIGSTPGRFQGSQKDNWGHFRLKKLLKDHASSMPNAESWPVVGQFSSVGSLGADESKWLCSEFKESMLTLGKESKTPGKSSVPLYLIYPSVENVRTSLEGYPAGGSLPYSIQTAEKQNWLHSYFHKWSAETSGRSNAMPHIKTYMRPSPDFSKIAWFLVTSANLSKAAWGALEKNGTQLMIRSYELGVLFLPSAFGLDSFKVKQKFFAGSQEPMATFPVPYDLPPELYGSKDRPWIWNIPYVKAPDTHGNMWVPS
The TDP1 inhibition was tested through a fluorescence assay according to a previously reported method. Detailed procedures are included in the Supporting Information. […]
Briefly, TDP1 solution (20 μL/well, 0.02 μL of purified TDP1 (100 nM) in 10 mM Tris-HCl, pH 7.5, 50 mM KCl, 1 mM EDTA, 1 mM DTT) was dispensed into wells of a white 384-well plate (NEST). The tested compound solution in DMSO (5 μL) was pinned into assay plates and incubated at room tempera-ture for 30 min. During this time, the plates were read by a Flash multimode reader (Molecular Devices) at Ex485/Em510 nm to identify false-positive compound that had autofluorescence. The linear oligonucle-otide substrate 5′-FAM-AGGATCTAAAAGACTT-BHQ-3′ (25 μL, 35 nM) was dispensed into the wells to start the reaction. The whole plate was immediately read five times using a kinetic read on the Flash […]
multimode reader (Molecular Devices) (Ex485/Em510 nm). TDP1 percentage inhibition of the tested com-pound was calculated by comparing the rate of increase in fluorescence throughout time for the com-pound-treated wells to that of DMSO control wells. […]

The nature of data set [2]: Measurement of fluorescent properties in MeOH. In kind it is physicochemical. Particulars: 300 μg/mL in MeOH; for Stokes Shift / λ em: λexc = 365 nm. The procedure:
(§1) Each probe was prepared at 300 μg/mL in MeOH. The absorption spectra were recorded from 200 to 400 nm using a Chirascan circular dichroism spectrometer ([…]). The fluorescence spectra were recorded from 385 to 750 nm with an excitation wavelength of 365 nm using Edinburgh Instruments FLS1000. For UV-irradiated probes, each probe was exposed to 365 nm UV light from a handheld UV lamp for a certain time, and the fluorescence spectra were then recorded using the same method mentioned above.

A short description of data set [3]: Change in fluorescence emission upon photoirradiation with 365 nm UV light. As to conditions: MeOH. It is filed as physicochemical. The protocol: In addition, the fluorescent properties of 1–6 were also evaluated. […] Meanwhile, compounds 1–6 with the concentration of […] were exposed to […] UV light, and their fluorescence emission spectra were recorded (Figure 10) as a control experiment because the assay used to assess TDP1 inhibition was a fluorescence assay. […] In addition, during the TDP1 inhibition assay, the tested compound solutions were read by a Flash multimode reader at Ex485/Em510 nm to identify false-positive compounds that had autofluorescence.
as §1

One may read the IC50 as the concentration needed to halve the response being measured. Turning to `CCCCCC1OC(OC)c2c3c(cc(O)c2C1OC)C=CC(C)(C)O3` (racemic) [(±)-1, (±)-Eurotiumide G], the half-maximal inhibitory concentration (IC50) in data set [1] was over 100 µM. In data set [2] (listed as 1), the ε is given as 125388.61 M^–1cm^–1, the λ abs worked out at 221 nm, the “φ F” value was found to be 0.0392 and the “Stokes Shift” value was 224 nm. For the same molecule, in data set [2] (listed as 1), the λ em is 445 nm. The “change of fluorescence with time upon 365 nm irradiation (photobleaching)” value (“change of fluorescence” below) in data set [3] (listed as 1) is “increased substantially with time”.
As for `CCCCCC1OC(OC)c2c3c(cc(O)c2C1OC)C=CC(C)(C)O3` (racemic) [(±)-2, (±)-Eurotiumide F], the IC50 in data set [1] is 57.8 ± 2.2 µM. In addition, in data set [2] (listed as 2), the ε amounted to 70590.11 M^–1cm^–1, the λ abs came to 223 nm, the “φ F” value was determined as 0.0225 and the “Stokes Shift” value is 241 nm. Moreover, the λ em in data set [2] (listed as 2) is 464 nm. Further, the “change of fluorescence” value in data set [3] (listed as 2) is listed as “responded similarly to 1 but with a smaller magnitude improvement in fluorescence”.
On to `CCCCCC1OC(OC)c2c3c(cc(O)c2C1OC)C=C(OC)C(C)(C)O3` (racemic) [(±)-3, (±)-Aspergiletal A], for which, in data set [1], the IC50 was over 100 µM. For the same molecule, in data set [2], the ε came to 61279.01 M^–1cm^–1, the λ abs was 206 nm, the “φ F” value is on record as 0.0048 and the “Stokes Shift” value is recorded as 266 nm. The molecule also returned a λ em in data set [2] of 472 nm. The “change of fluorescence” value in data set [3] was “significant loss of fluorescence with time”.
As to `CCCCCC1OC(OC)c2c3c(cc(O)c2C1OC)CC(OC)C(C)(C)O3` (racemic) [(±)-4, (±)-Aspergiletal B], the concentration for half-maximal inhibition (IC50) in data set [1] is over 100 µM. For the same molecule, in data set [2], the ε was 208307.41 M^–1cm^–1, the λ abs came to 225 nm, the “φ F” value was determined as 0.0649 and the “Stokes Shift” value is given as 203 nm. Also, the λ em in data set [2] stood at 428 nm. Besides, in data set [3], the “change of fluorescence” value is reported as “inert to photobleaching”.
As for `CCCCCC1OC(OC)c2c3c(cc(O)c2C1OC)CC(O)C(C)(C)O3` (racemic) [(±)-5, (±)-Aspergiletal C], the IC50 in data set [1] is over 100 µM. In data set [2], the ε worked out at 106186.60 M^–1cm^–1, the λ abs is 203 nm, the “φ F” value amounted to 0.0482 and the “Stokes Shift” value came to 229 nm. Further, the λ em in data set [2] was determined as 432 nm. Besides, in data set [3], the “change of fluorescence” value is on record as “significant loss of fluorescence with time”.
For the molecule `CCCCCC1OC(OC)c2c3c(cc(O)c2C1OC)C(O)C(O)C(C)(C)O3` (racemic) [(±)-6, (±)-Aspergiletal D], the IC50 in data set [1] was 6.5 ± 0.73 µM. Moreover, in data set [2], the ε came out at 127827.28 M^–1cm^–1, the λ abs was found to be 225 nm, the “φ F” value turned out to be 0.0416 and the “Stokes Shift” value is 199 nm. Moreover, the λ em in data set [2] was 424 nm. In addition, the “change of fluorescence” value in data set [3] was “significant loss of fluorescence with time”.
As for `CCCCCC1OC(OC)c2c3c(cc(O)c2C1OC)C=CC(C)(C)O3` (single isomer, unassigned; (-)) [(−)-1, eurotiumide G], in data set [1], the IC50 is over 100 µM.
Still for that read-out and setting: then `CCCCC[C@H]1O[C@H](OC)c2c3c(cc(O)c2[C@H]1OC)C=CC(C)(C)O3` [(+)-1, eurotiumide G], with over 100 µM; and `CCCCC[C@H]1O[C@H](OC)c2c3c(cc(O)c2[C@@H]1OC)C=CC(C)(C)O3` [(+)-2, eurotiumide F], with over 100 µM.
The same measure, in the same setting: then `CCCCC[C@H]1O[C@H](OC)c2c3c(cc(O)c2[C@H]1OC)C=C(OC)C(C)(C)O3` [(+)-3, Aspergiletal A], with over 100 µM.
On the same count and under the same terms, with `CCCCC[C@H]1O[C@H](OC)c2c3c(cc(O)c2[C@H]1OC)C[C@H](OC)C(C)(C)O3` [(+)-4, Aspergiletal B] the figure was over 100 µM.
`CCCCC[C@H]1O[C@H](OC)c2c3c(cc(O)c2[C@H]1OC)C[C@H](O)C(C)(C)O3` [(+)-5, Aspergiletal C]: the half-inhibitory concentration (IC50) in data set [1] is over 100 µM.
On the same count and under the same terms, with `CCCCC[C@H]1O[C@H](OC)c2c3c(cc(O)c2[C@H]1OC)[C@H](O)[C@H](O)C(C)(C)O3` [(+)-6, Aspergiletal D] the figure was 27.8 ± 1.73 µM; with `CCCCC[C@@H]1O[C@@H](OC)c2c3c(cc(O)c2[C@H]1OC)C=CC(C)(C)O3` [(−)-2, eurotiumide F], over 100 µM.
Regarding `CCCCC[C@@H]1O[C@@H](OC)c2c3c(cc(O)c2[C@@H]1OC)C=C(OC)C(C)(C)O3` [(−)-3, Aspergiletal A], in data set [1], the IC50 is over 100 µM.
On the same count and under the same terms, then `CCCCC[C@@H]1O[C@@H](OC)c2c3c(cc(O)c2[C@@H]1OC)C[C@@H](OC)C(C)(C)O3` [(−)-4, Aspergiletal B], with over 100 µM; and `CCCCC[C@@H]1O[C@@H](OC)c2c3c(cc(O)c2[C@@H]1OC)C[C@@H](O)C(C)(C)O3` [(−)-5, Aspergiletal C], with over 100 µM.
Same read-out and setting: then `CCCCC[C@@H]1O[C@@H](OC)c2c3c(cc(O)c2[C@@H]1OC)[C@@H](O)[C@@H](O)C(C)(C)O3` [(−)-6, Aspergiletal D], with 37.3 ± 3.63 µM.
